# “Also recorded” adds a separate entry of the source.
# Target: T1, TLR9 (Mus musculus, UniProt Q9EQU3)
# T1 construct: from tissue; host or cells: whole animal: C57BL/6, FVB and FVB GADD34ΔC/ΔC mice
# T1 sequence (Q9EQU3 26-1032): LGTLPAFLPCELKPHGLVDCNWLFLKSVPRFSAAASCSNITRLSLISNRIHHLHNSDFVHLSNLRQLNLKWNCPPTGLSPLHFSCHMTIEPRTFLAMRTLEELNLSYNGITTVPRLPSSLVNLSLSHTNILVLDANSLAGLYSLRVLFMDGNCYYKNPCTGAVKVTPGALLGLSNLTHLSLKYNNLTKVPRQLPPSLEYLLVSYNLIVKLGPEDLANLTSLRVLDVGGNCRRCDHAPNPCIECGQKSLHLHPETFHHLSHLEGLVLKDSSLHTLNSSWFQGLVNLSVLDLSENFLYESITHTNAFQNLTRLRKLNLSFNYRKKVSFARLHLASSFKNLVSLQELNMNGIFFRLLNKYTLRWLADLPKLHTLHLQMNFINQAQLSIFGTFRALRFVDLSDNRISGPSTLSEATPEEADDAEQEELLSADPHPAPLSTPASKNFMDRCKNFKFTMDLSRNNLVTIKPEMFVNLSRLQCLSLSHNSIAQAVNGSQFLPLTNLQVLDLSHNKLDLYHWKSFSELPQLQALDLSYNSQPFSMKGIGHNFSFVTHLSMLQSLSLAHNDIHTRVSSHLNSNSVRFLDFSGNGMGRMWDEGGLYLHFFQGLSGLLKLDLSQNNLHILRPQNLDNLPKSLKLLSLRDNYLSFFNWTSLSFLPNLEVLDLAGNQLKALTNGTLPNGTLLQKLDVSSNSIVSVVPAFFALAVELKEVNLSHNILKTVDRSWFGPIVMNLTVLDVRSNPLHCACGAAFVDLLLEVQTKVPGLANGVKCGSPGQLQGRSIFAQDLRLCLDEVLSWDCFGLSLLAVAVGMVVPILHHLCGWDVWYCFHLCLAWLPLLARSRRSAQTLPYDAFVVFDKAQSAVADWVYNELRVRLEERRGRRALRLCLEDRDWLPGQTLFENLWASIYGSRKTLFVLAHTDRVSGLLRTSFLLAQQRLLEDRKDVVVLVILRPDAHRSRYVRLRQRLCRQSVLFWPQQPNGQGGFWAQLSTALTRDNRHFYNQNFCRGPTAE
# Assay: Cytokine production and gene expression in sorted Flt3L-DC pDCs activated with CpG ODN 1585
# Assay type: cell-based
# Description: FIG. 1: Guanabenz inhibits TLR3 and TLR9 activation in mouse Flt3-L DCs and human blood pDCs. A) Sorted bone marrow derived Flt3L-DCs were activated for 6 h with 10 μg/mL poly I:C LMW (TLR3 in DC1) or 1 μM ODN 1585 (TLR9 in pDCs). GBZ was added at 50 μM and inhibited IFN-β and Interleukin-6 (IL-6) production in activated cells. B) […], hTLR3, hTLR9 and hTLR7 expressed in the reporter HEK-Blue™ cells are inhibited by GBZ. TLR-expressing HEK-Blue™ cells were respectively activated with 100 ng/mL LPS, 10 μg/mL poly I:C LMW, 2.5 μM ODN 2006 or 5 μg/mL imiquimod, respectively. GBZ was added at 50 μM. TLR activity was measured indirectly through SEAP activity as absorbance at 405 nm. GBZ inhibited human TLR3, TLR7 and TLR9 signaling, but not TLR4._C) Human primary pDCs were isolated from blood and activated either with 3 μM CpG ODN 2216 (top) or with 2% of anti-DNA IgG containing serum from lupus patients (bottom). GBZ was added at 50 μM. Protein concentration of IFN-α and TNF-α secreted were measured at the indicated time points or at 16 h. Statistical significance was assigned using two tailed t-test on at least n=3 independent experiments (* p<0.05; ** p<0.005; ***p<0.0005).
# BM-derived DCs were differentiated in vitro from the bone marrow of 6-8 weeks old male mice, using either FLT3 ligand or GM-CSF. Flt3L-DCs were used for experiments between days 6 and 7. Flt3L was produced using B16-Flt3L hybridoma cells. Bone marrow progenitors were plated at 1.5 10^6 cells/ml, 4 ml/well in 6 well plate, and cultivated with RPMI (GIBCO), 10% FCS (Sigma Aldrich), 100 units/ml penicillin and 100 μg/ml streptomycin (GIBCO), 50 μM b-mercaptoethanol (VWR) and Flt3L. For sorted Flt3L-DCs, cells were gently harvested at day 7 with cold PBS 2% FCS, centrifuged 1200 rpm 5 min at 4° C., counted and stained with for 30 mins at 4° C. Cells were sorted with the FACS ARIASorp. Cells were kept on ice all the time. […]
# ODN 2006, 2216, 1585 and 1826, Poly I:C High and Low Molecular Weight are from InvivoGen, San Diego, Calif.; lipopolysaccharide (Escherichia coli 055:B5), clonidine, chloroquine, D-(+)-Galactosamine hydrochloride and 25-HC are from Sigma Aldrich; Guanabenz is from Tocris Bioscience. For quantitative PCR, total RNAs were extracted and purified using the RNeasy Mini Kit (Qiagen). […] Each gene transcripts were quantified by SYBR Green method with 7500Fast (Applied Biosystems). The relative amount of each transcript was determined by normalizing to internal housekeeping gene expression.
# Mouse IFN-β quantification in culture supernatant was performed using the Mouse Interferon Beta ELISA kit (PBL InterferonSource); mouse IL-6, TNFα, IL-10, human TNFα and human IFNα were quantified using ELISA kit (eBioscience) respectively, according to manufacturer instructions. […]
# [1] = sorted pDCs, 1 μM ODN 1585 6 h, GBZ 50 μM
smiles,measurement,setting,value
"NC(N)=N/N=C/c1c(Cl)cccc1Cl [GBZ, 2-(2,6-dichlorobenzylidene)-hydrazinecarboximidamide]","transcriptional response to CpG ODN (ifna4, Tnfa, isg15, Il12 by qPCR)","pDC, data not shown",inhibited completely
same,impact on cell fitness,sorted cDC1 and pDCs treated with GBZ,without any impact
same,IFN-β production,[1],nearly abrogated; also recorded: inhibited
same,IL-6 production,[1],nearly abrogated; also recorded: inhibited

# From patent publication US20210177814A1, “USE OF GUANABENZ OR DERIVATES THEREOF FOR THE TREATMENT OF TYPE I IFN-DEPENDENT PATHOLOGIES” (INSERM (Institut National de la Santé et de la Recherche …, priority 2018, published 2021)
